Results reported in ChEMBL document CHEMBL5244219, “Recent developments of quinolone-based derivatives and their activities against Escherichia coli” (Eur J Med Chem, 2018).
In brackets after ≈: the same amount, converted by molar mass. Each block holds one molecule with its values, some of them ahead of it.

What was measured:
[1] = system: Escherichia coli; assay: Antibacterial activity against Escherichia coli assessed as bacterial growth inhibition by broth microdilution method; assay type: functional
[2] = system: Escherichia coli; assay: Antibacterial activity against Escherichia coli assessed as bacterial growth inhibition incubated for 18 to 20 hrs by agar dilution method; assay type: functional; settings: time 18-20 hrs
[3] = system: Escherichia coli; assay: Antibacterial activity against Escherichia coli assessed as bacterial growth inhibition by agar dilution method; assay type: functional
[4] = system: Escherichia coli; assay: Antibacterial activity against Escherichia coli NCDC 134 assessed as bacterial growth inhibition; assay type: functional
[5] = system: Escherichia coli; assay: Antibacterial activity against Escherichia coli H560 assessed as bacterial growth inhibition; assay type: functional
[6] = system: Escherichia coli; assay: Antibacterial activity against Escherichia coli NCTC 10418 assessed as bacterial growth inhibition incubated for 18 to 20 hrs by agar dilution method; assay type: functional; settings: time 18-20 hrs
[7] = system: Escherichia coli; assay: Potency index, ratio of ceftazidime MIC to compound IC50 for antibacterial activity against Escherichia coli DC2; assay type: functional
[8] = system: Escherichia coli; assay: Potency index, ratio of ceftazidime MIC to compound IC50 for antibacterial activity against Escherichia coli DC0; assay type: functional
[9] = system: Escherichia coli; assay: Antibacterial activity against Escherichia coli DC0 assessed as bacterial growth inhibition by agar dilution method; assay type: functional
[10] = system: Escherichia coli; assay: Antibacterial activity against Escherichia coli DC2 assessed as bacterial growth inhibition by agar dilution method; assay type: functional
[11] = system: Escherichia coli; assay: Antibacterial activity against Escherichia coli KC-14 assessed as bacterial growth inhibition; assay type: functional
[12] = Cmax in mouse at 20 mg/kg, po; assay type: ADME, organism-based; set-up: dose 20 mg/kg, route po; settings: in vivo
[13] = system: Escherichia coli; assay: Antibacterial activity against Escherichia coli KC-14 infected in po dosed mouse assessed as bacterial growth inhibition; assay type: functional; settings: Escherichia coli, KC-14, po, read-out: ED50
[14] = Half life in mouse at 20 mg/kg, po; assay type: ADME, organism-based; settings: in vivo
[15] = AUC(0 to infinity) in mouse at 20 mg/kg, po; assay type: ADME, organism-based; set-up: dose 20 mg/kg, route po; settings: in vivo
[16] = system: Escherichia coli; assay: Antibacterial activity against Escherichia coli DC0 assessed as bacterial growth inhibition; assay type: functional
[17] = target: DNA gyrase (Escherichia coli, UniProt P0AES4+P0AES6); assay: Inhibition of Escherichia coli DNA gyrase; assay type: protein-complex assay
[18] = system: Escherichia coli; assay: Antibacterial activity against Escherichia coli DC2 assessed as bacterial growth inhibition; assay type: functional
[19] = system: Escherichia coli; assay: Antibacterial activity against Escherichia coli ES142 assessed as bacterial growth inhibition; assay type: functional
[20] = system: Escherichia coli; assay: Antibacterial activity against Escherichia coli assessed as bacterial growth inhibition incubated for 18 hrs by twofold serial dilution assay; assay type: functional
[21] = system: Escherichia coli; assay: Antibacterial activity against Escherichia coli assessed as bacterial growth inhibition incubated for 24 hrs by agar streak dilution method; assay type: functional
[22] = system: Escherichia coli; assay: Antibacterial activity against Escherichia coli assessed as bacterial growth inhibition; assay type: functional
[23] = system: Escherichia coli; assay: Antibacterial activity against Escherichia coli ATCC 700603 assessed as bacterial growth inhibition by agar dilution method; assay type: functional
[24] = system: Escherichia coli; assay: Antibacterial activity against Escherichia coli JM109 assessed as bacterial growth inhibition; assay type: functional
[25] = system: Escherichia coli; assay: Antibacterial activity against Escherichia coli assessed as bacterial growth inhibition incubated for 18 hrs by agar dilution method; assay type: functional
[26] = system: Escherichia coli; assay: Antibacterial activity against Escherichia coli ATCC 35218 assessed as bacterial growth inhibition incubated for 18 hrs by agar dilution method; assay type: functional
[27] = system: Escherichia coli; assay: Antibacterial activity against Escherichia coli TolC assessed as bacterial growth inhibition; assay type: functional
[28] = system: Escherichia coli; assay: Antibacterial activity against Escherichia coli DH5alpha assessed as bacterial growth inhibition; assay type: functional
[29] = system: Escherichia coli; assay: Antibacterial activity against Escherichia coli assessed as bacterial growth inhibition by microdilution method; assay type: functional
[30] = system: Escherichia coli; assay: Antibacterial activity against Escherichia coli ATCC 25922 infected in iv dosed mouse assessed as bacterial growth inhibition; assay type: functional
[31] = system: Escherichia coli; assay: Antibacterial activity against Escherichia coli assessed as bacterial growth inhibition incubated for 16 to 24 hrs by absorbance analysis; assay type: functional; settings: time 16-24 hrs

MIC [1]: 0.0625 µg/mL (≈ 0.235 µM)
SMILES: CCn1cc(C(=O)NN)c(=O)c2cc(Cl)ccc21

SMILES: COc1c(N2CCNC(C)C2)c(F)cc2c(=O)c(C(=O)O)cn(C3CC3)c12 (stereo not given) [GATIFLOXACIN]
MIC [2]: 0.015 µg/mL (≈ 0.04 µM) | MIC90 [3]: 4 µg/mL (≈ 10.7 µM) | MIC [4]: 100 µg/mL (≈ 266 µM) | MIC [5]: 0.006 µg/mL (≈ 0.016 µM)

MIC [6]: ≤ 0.018 µg/mL
SMILES: CCn1cc(C(=O)O)c(=O)c2cc(F)c(N3CCN(CN4C(=O)/C(=N/NC(N)=S)c5cc(Br)ccc54)CC3)cc21

MIC [9]: 0.008 µg/mL (≈ 0.0122 µM) | MIC [10]: 0.008 µg/mL (≈ 0.0122 µM)
SMILES: CCO/N=C(\C(=O)N[C@@H]1C(=O)N2C(C(=O)O)=C(CNC(=O)c3cn(CC)c4cc(O)c(O)cc4c3=O)CSC12)c1csc(N)n1 (stereo in doubt)
Ratio [7]: 8 | Ratio [8]: 8

MIC90 [3]: 4 µg/mL (≈ 9.38 µM)
SMILES: C[C@H]1NCc2cc(-c3ccc4c(=O)c(C(=O)O)cn(C5CC5)c4c3OC(F)F)ccc21 [GARENOXACIN]

MIC [11]: 0.025 µg/mL (≈ 0.0608 µM) | Cmax [12]: 3200 ng/mL | half-life [14]: 1.2 h | AUC(0-inf) [15]: 3500 ng·h/mL
SMILES: COc1c(N2CCN(C)CC2)c(F)cc2c(=O)c(C(=O)O)c3n(c12)C(CF)S3 (stereo not given)
ED50 [13]: 0.76 mg/kg

SMILES: C[C@H](N)[C@@H]1CCN(c2cc3c4c(c2)c(=O)c(C(=O)O)cn4[C@@H](C)CO3)C1
MIC [16]: 0.063 µg/mL (≈ 0.176 µM) | IC50 [17]: 17.9 µM | MIC [18]: 0.063 µg/mL (≈ 0.176 µM) | MIC [19]: 0.063 µg/mL (≈ 0.176 µM)

SMILES: CCn1cc(C(=O)O)c(=O)c2cc(F)c(N3CCNCC3)cc21 [NORFLOXACIN]
MIC [2]: 0.31 µg/mL (≈ 0.971 µM) | MIC [20]: 0.25 µg/mL (≈ 0.783 µM) | MIC [21]: 6.25 µg/mL (≈ 19.6 µM) | MIC [22]: 0.1 µg/mL (≈ 0.313 µM) | MIC [23]: 4 µg/mL (≈ 12.5 µM) | MIC [24]: 1 µg/mL (≈ 3.13 µM) | MIC [4]: 25 µg/mL (≈ 78.3 µM)

SMILES: C[C@H]1COc2cc(N3CC[C@@H](C(C)(C)N)C3)cc3c(=O)c(C(=O)O)cn1c23
MIC [16]: 0.063 µg/mL (≈ 0.17 µM) | IC50 [17]: 8.62 µM | MIC [18]: 0.063 µg/mL (≈ 0.17 µM) | MIC [19]: 0.063 µg/mL (≈ 0.17 µM)

MIC [6]: ≤ 0.018 µg/mL
SMILES: CCn1cc(C(=O)O)c(=O)c2cc(F)c(N3CCN(CN4C(=O)C(=O)c5cc(Cl)ccc54)CC3)cc21

SMILES: N[C@@H]1CN(c2c(F)cc3c(=O)c(C(=O)O)cn([C@@H]4C[C@@H]4F)c3c2Cl)CC12CC2 [SITAFLOXACIN ANHYDROUS]
MIC [25]: ≤ 0.006 µg/mL

MIC [26]: < 0.008 µg/mL
SMILES: COc1cccc(CO/N=C2\CCN(c3c(F)cc4c(=O)c(C(=O)O)cn(C5CC5)c4c3OC)CC2N)c1 (stereo not given)

MIC [1]: 0.0625 µg/mL (≈ 0.162 µM)
SMILES: CCn1cc(C(=O)NNS(=O)(=O)c2ccc(C)cc2)c(=O)c2ccccc21

MIC [6]: ≤ 0.018 µg/mL
SMILES: CCn1cc(C(=O)O)c(=O)c2cc(F)c(N3CCN(CN4C(=O)C(=O)c5cc(Br)ccc54)CC3)cc21

MIC [11]: 0.05 µg/mL (≈ 0.131 µM) | Cmax [12]: 4400 ng/mL | half-life [14]: 1.5 h | AUC(0-inf) [15]: 6900 ng·h/mL
SMILES: CN1CCN(c2cc3c(cc2F)c(=O)c(C(=O)O)c2n3C(CF)S2)CC1 (stereo not given)
ED50 [13]: 0.85 mg/kg

MIC [1]: 0.0625 µg/mL (≈ 0.251 µM)
SMILES: CCn1cc(C(=O)NN)c(=O)c2cc(F)ccc21

MIC [25]: ≤ 0.006 µg/mL
SMILES: COc1c(N2CC3(CC3)[C@](C)(N)C2)c(F)cc2c(=O)c(C(=O)O)cn([C@@H]3C[C@@H]3F)c12

MIC50 [27]: > 1.41 µg/mL | MIC50 [28]: > 64 µg/mL
SMILES: Cc1[nH]c2ccccc2c(=O)c1C

MIC50 [27]: > 1.41 µg/mL | MIC50 [28]: > 64 µg/mL
SMILES: CC(C)=CCc1c(C)[nH]c2ccccc2c1=O

MIC [29]: ≥ 0.5 µg/mL
SMILES: CC(=O)NC[C@H]1CN(c2ccc(N3CCN(c4nc5c(cc4F)c(=O)c(C(=O)O)cn5C4CC4)CC3)c(F)c2)C(=O)O1

SMILES: CN1CCN(c2cc3c(cc2F)c(=O)c(C(=O)O)cn3-c2ccc(O)cc2)CC1
ED50 [30]: 0.75 mg/kg

MIC [2]: 0.305 µg/mL (≈ 0.39 µM)
SMILES: CCn1cc(C(=O)O)c(=O)c2cc(F)c(N3CCN(CN4C(=O)/C(=N\c5ncc(Cc6cc(OC)c(OC)c(OC)c6)c(N)n5)c5ccccc54)C(C)C3)c(F)c21 (stereo not given)

MIC [2]: 0.02 µg/mL (≈ 0.0569 µM)
SMILES: CCn1cc(C(=O)O)c(=O)c2cc(F)c(N3CCNC(C)C3)c(F)c21 (stereo not given) [LOMEFLOXACIN]

MIC50 [27]: > 1.41 µg/mL | MIC50 [28]: > 64 µg/mL
SMILES: CC(C)=CCC/C(C)=C/Cc1c(C)[nH]c2ccccc2c1=O

MIC [31]: 8.97 µg/mL (≈ 41.3 µM)
SMILES: Cc1[nH]c2ccccc2c(=O)c1CC(=O)O

MIC [2]: 0.0763 µg/mL (≈ 0.102 µM)
SMILES: CCn1cc(C(=O)O)c(=O)c2cc(F)c(N3CCN(CN4C(=O)/C(=N\c5ncc(Cc6cc(OC)c(OC)c(OC)c6)c(N)n5)c5ccccc54)CC3)cc21
